Blank lines part the entries; values can stand above or below the molecule they belong to. Activity calls are given as the source filed them.
What was measured:
[1] = target: Glycogen synthase kinase-3 alpha (Homo sapiens, UniProt P49840); assay: Inhibition of Human GSK-3 alpha Activity Measured in Biochemical System Using Microfluidics - 2063-06_Inhibitor_Dose_DryPowder_Activity_Set2. [Related pubchem assays (depositor defined):AID2709]
[2] = target: T1, Glycogen synthase kinase-3 beta (Homo sapiens, UniProt P49841); assay: Inhibition of Human GSK-3 beta Activity Measured in Biochemical System Using Microfluidics - 2063-05_Inhibitor_Dose_DryPowder_Activity_Set2. [Related pubchem assays (depositor defined):AID2709]
[3] = target: Cyclin-dependent kinase 5/CDK5 activator 1 (Homo sapiens, UniProt Q00535); assay: CDK5-p25 kinase inhibitors, specificity check, dose response, selectivity assay for GSK-3 alpha inhibitor project, biochemical, microfluidic mobility shift, dry powder (AID 588430)
[4] = target: Serine/threonine-protein kinase pim-1 (Homo sapiens, UniProt P11309); format: functional
[5] = target: Cell division cycle 7-related protein kinase (Homo sapiens, UniProt O00311); format: functional;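 further: value obtained from a kinome-wide kinase panel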
[6] = target: Homeodomain-interacting protein kinase 2 (Homo sapiens, UniProt Q9H2X6); format: functional;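 further: measured within a kinome-wide kinase profiling panel, HIPK2 being one panel member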
[7] = target: Interleukin-1 receptor-associated kinase 4 (Homo sapiens, UniProt Q9NWZ3); format: functional
[8] = target: T1, Glycogen synthase kinase-3 beta; format: functional
[9] = target: cAMP-dependent protein kinase catalytic subunit alpha (Homo sapiens, UniProt P17612); format: functional
[10] = target: Mitogen-activated protein kinase kinase kinase kinase 4 (Homo sapiens, UniProt O95819); format: functional
[11] = target: ALK tyrosine kinase receptor (Homo sapiens, UniProt Q9UM73); format: functional;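 further: ALK tested as one member of a kinase panel screen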
Wee1-like protein kinase = Wee1-like protein kinase (Homo sapiens, UniProt P30291); assay: Navigating the Kinome. Panel member name: WEE1; format: functional
[12] = target: Serine/threonine-protein kinase Chk2 (Homo sapiens, UniProt O96017); format: functional;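 further: CHEK2 entry within a kinome-wide screening panel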
[13] = target: Cyclin-dependent kinase 2 (Homo sapiens, UniProt P24941); format: functional;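 further: CDK2 measured as one member of a broad kinome profiling panel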
[14] = target: MAP kinase-activated protein kinase 3 (Homo sapiens, UniProt Q16644); format: functional;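 further: value comes from a kinome-wide profiling panel in which MAPKAPK3 is one of the panel members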
[15] = target: Casein kinase I isoform delta (Homo sapiens, UniProt P48730); format: functional;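 further: measured as one member (CSNK1D) of a kinome panel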
[16] = target: Cyclin-dependent kinase 5 (Homo sapiens, UniProt Q00535); format: functional;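 further: CDK5 measured as one member of a kinase profiling panel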
[17] = target: Cyclin-dependent kinase 1 (Homo sapiens, UniProt P06493); format: functional;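 further: Kinome-wide panel profiling, with the target listed as panel member CDC2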
[18] = target: Cyclin-dependent kinase 19 (Homo sapiens, UniProt Q9BWU1); assay: Navigating the Kinome. Panel member name: CDC2L6; format: functional
[19] = target: DNA dC->dU-editing enzyme APOBEC-3G (Homo sapiens, UniProt Q9HC16); assay: APOBEC3G deaminase inhibitors, SAR follow-up, biochemical, fluorescence, single-stranded DNA substrate (AID 602136); format: functional; conditions: read-out: IC50_Mean
[20] = target: DNA dC->dU-editing enzyme APOBEC-3A (Homo sapiens, UniProt P31941); assay: SAR analysis of small molecule inhibitors of APOBEC3A DNA Deaminase via a fluorescence-based single-stranded DNA deaminase assay.; format: functional; conditions: read-out: IC50_Mean
[21] = target: Protein kinase C zeta type (Homo sapiens, UniProt Q05513); format: functional;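 further: measured as one member of a broad kinase profiling panel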
[22] = target: 3-phosphoinositide-dependent protein kinase 1 (Homo sapiens, UniProt O15530); format: functional;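 further: value comes from the Navigating the Kinome panel, PDPK1 member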
[23] = target: C-C chemokine receptor type 6 (Homo sapiens, UniProt P51684); assay: CCR6 receptor antagonists, dose response, cell-based, luminescent beta-arrestin readout (AID 504728); format: functional
Beta-galactosidase = Beta-galactosidase (Escherichia coli, UniProt Q8VNN2); assay: beta-galactosidase enzyme inhibitors and activators, dose response, artefact control for CCR6 antagonist project, biochemical, E. coli enzyme, set 3 (AID 504712); format: functional
[24] = target: Heat shock protein HSP 90-alpha (Homo sapiens, UniProt P07900); format: functional, organism-based
HSP90 = HSP90 (Plasmodium falciparum 3D7, UniProt Q8IL32); format: functional, organism-based

T1 sequence (P49841 whole entry): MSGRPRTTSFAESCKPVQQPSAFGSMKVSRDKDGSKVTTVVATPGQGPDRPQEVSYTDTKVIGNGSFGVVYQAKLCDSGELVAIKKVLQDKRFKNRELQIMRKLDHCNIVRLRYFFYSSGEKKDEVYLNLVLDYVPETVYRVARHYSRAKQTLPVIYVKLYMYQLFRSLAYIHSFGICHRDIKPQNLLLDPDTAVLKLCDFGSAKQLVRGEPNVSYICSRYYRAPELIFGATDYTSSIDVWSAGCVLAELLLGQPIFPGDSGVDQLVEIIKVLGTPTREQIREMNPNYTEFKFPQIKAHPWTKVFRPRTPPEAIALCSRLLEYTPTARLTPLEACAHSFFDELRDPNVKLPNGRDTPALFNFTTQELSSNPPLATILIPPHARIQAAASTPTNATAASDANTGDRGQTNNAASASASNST
Chain of ALK tyrosine kinase receptor (Q9UM73 whole entry): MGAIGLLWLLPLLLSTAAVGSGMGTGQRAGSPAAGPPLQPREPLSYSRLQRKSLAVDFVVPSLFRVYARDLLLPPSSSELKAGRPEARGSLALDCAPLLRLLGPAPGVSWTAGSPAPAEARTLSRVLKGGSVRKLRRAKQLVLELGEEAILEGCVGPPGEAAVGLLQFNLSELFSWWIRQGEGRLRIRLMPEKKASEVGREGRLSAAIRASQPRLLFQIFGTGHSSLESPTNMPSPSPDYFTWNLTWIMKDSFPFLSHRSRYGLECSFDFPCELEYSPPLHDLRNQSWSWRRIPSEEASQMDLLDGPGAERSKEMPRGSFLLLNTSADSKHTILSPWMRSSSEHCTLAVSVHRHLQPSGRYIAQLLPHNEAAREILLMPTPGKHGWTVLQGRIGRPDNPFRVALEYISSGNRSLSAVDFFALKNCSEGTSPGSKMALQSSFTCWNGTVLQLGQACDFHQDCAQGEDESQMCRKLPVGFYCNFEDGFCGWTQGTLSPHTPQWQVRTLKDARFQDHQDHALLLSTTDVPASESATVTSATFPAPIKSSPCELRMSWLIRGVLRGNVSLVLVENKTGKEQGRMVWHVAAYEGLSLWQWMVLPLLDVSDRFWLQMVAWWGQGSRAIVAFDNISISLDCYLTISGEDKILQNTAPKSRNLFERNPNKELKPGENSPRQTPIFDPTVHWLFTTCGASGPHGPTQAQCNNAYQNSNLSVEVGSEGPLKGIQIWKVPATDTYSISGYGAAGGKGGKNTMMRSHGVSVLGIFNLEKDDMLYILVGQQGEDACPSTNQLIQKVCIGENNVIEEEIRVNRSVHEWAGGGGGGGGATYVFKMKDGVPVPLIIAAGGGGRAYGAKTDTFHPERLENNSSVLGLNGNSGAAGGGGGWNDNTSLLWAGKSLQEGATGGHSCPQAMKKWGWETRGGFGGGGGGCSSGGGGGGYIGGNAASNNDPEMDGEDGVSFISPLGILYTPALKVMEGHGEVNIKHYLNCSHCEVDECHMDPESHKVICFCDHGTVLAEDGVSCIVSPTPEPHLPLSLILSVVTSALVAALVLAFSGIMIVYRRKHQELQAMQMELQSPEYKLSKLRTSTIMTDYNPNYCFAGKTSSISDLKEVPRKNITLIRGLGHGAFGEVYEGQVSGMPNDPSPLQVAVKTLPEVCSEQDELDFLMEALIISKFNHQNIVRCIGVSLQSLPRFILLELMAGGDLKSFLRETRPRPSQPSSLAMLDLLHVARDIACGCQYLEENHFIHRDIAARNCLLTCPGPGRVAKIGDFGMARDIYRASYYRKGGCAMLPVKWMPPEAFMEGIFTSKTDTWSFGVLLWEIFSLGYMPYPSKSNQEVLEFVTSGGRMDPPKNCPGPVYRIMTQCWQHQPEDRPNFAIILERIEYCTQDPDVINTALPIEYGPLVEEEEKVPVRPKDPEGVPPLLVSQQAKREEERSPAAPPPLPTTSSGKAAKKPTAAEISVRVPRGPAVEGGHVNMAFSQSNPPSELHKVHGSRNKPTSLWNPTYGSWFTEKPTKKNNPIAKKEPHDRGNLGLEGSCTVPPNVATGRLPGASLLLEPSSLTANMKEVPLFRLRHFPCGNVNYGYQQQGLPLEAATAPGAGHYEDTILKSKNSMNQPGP
Chain of Serine/threonine-protein kinase Chk2 (O96017 whole entry): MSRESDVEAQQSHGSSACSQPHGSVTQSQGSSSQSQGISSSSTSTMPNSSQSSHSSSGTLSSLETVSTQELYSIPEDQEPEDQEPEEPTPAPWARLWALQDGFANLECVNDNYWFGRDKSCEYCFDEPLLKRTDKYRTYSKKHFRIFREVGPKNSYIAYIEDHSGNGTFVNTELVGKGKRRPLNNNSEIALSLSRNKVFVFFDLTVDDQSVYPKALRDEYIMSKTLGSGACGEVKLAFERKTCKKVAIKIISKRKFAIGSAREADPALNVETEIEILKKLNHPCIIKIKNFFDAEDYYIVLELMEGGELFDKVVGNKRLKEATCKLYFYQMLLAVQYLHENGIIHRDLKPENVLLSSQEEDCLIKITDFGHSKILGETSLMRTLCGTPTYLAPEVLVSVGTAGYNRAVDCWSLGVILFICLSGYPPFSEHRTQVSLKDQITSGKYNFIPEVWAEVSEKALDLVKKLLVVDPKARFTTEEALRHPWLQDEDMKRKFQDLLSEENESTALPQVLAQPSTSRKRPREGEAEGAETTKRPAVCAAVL
Chain of C-C chemokine receptor type 6 (P51684 whole entry): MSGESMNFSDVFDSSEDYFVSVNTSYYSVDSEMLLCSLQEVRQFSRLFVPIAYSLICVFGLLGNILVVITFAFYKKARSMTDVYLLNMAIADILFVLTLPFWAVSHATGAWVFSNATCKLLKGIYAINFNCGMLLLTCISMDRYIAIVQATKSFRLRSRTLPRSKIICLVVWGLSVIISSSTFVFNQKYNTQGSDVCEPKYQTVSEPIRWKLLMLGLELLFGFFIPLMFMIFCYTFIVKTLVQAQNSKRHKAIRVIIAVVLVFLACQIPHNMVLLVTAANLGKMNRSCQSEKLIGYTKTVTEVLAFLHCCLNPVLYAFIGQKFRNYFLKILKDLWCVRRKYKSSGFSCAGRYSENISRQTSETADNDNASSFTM
Chain of 3-phosphoinositide-dependent protein kinase 1 (O15530 whole entry): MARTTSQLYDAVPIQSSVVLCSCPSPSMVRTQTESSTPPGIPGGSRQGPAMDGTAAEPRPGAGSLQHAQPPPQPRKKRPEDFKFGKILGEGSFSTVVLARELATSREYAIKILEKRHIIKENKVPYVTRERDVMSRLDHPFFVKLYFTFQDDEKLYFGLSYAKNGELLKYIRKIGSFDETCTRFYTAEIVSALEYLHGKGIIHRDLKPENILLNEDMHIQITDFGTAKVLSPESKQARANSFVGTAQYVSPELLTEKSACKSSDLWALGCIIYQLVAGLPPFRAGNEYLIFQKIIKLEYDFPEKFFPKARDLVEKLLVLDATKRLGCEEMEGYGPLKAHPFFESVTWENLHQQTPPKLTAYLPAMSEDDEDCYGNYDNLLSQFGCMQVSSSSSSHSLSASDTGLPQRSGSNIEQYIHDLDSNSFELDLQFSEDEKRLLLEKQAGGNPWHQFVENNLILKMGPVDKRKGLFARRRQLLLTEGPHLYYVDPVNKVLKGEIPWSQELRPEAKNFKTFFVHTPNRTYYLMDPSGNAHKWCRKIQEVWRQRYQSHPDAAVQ
Chain of Mitogen-activated protein kinase kinase kinase kinase 4 (O95819 whole entry): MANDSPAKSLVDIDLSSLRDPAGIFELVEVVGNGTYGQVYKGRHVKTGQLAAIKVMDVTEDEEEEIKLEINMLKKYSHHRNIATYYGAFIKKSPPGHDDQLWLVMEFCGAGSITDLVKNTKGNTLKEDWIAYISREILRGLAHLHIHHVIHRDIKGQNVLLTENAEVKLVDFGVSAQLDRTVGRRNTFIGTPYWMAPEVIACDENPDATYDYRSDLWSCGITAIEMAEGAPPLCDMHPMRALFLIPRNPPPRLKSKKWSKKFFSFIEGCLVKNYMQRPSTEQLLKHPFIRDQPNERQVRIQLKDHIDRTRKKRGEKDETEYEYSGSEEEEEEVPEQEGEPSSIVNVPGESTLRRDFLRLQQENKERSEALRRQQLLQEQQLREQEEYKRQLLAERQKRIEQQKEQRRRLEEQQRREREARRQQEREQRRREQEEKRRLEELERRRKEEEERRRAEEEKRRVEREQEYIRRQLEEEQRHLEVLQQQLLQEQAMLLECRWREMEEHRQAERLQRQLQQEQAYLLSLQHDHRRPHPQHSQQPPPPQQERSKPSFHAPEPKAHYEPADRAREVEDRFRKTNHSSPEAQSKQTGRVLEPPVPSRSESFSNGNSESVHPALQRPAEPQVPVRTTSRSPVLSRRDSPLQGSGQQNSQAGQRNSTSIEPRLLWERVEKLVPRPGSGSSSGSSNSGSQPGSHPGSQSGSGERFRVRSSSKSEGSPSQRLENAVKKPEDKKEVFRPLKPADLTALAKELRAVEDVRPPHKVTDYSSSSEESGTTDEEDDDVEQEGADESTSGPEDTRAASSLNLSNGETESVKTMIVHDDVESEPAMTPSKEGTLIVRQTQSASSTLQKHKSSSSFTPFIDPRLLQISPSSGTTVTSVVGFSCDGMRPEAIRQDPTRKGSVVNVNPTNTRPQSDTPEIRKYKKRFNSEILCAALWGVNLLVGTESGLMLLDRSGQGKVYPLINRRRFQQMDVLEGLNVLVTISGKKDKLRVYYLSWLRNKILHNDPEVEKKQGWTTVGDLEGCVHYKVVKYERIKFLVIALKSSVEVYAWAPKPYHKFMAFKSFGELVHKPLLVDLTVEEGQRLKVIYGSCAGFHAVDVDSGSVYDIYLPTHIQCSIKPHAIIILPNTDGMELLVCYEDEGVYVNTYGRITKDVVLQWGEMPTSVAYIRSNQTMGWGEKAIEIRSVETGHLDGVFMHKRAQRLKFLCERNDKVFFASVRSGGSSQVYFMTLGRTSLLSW
Chain of Serine/threonine-protein kinase pim-1 (P11309 whole entry): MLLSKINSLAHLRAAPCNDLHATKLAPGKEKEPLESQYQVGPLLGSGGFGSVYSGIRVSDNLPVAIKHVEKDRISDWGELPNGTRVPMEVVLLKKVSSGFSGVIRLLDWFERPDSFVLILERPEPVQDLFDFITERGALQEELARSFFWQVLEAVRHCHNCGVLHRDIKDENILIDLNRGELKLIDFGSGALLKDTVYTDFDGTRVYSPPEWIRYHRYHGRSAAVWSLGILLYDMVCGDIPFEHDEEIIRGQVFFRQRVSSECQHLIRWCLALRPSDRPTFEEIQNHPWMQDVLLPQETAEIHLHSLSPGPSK

AC50 [1]: 0.422 µM (active)
AC50 [2]: 0.325 µM (active)
AC50 [3]: 9.28 µM (active)
Structure (SMILES): Nc1nonc1-n1nnc(C(=O)N/N=C/c2ccccc2F)c1-c1cccs1

Ki [4]: 0.501 µM (active)
Ki [5]: 0.000794 µM (active)
Ki [6]: 0.0251 µM (active)
Ki [7]: 5.01 µM (active)
Ki [8]: 0.1 µM (active)
Ki [9]: 0.251 µM (active)
Ki [10]: 0.00316 µM (active)
Structure (SMILES): OCCCCNc1cc(-c2c[nH]c3ncccc23)cc(Cl)n1

Ki [11]: 0.0398 µM (active)
Ki (Wee1-like protein kinase): 0.0158 µM (active)
Structure (SMILES): CCN1CCN(c2ccc(Nc3ncc(C)c(Nc4ccc5[nH]ncc5c4)n3)cc2)CC1

Ki [12]: 3.98 µM (active)
Ki [13]: 7.94 µM (active)
Ki [14]: 2 µM (active)
Ki [15]: 3.98 µM (active)
Ki [16]: 10 µM (active)
Ki [17]: 7.94 µM (active)
Structure (SMILES): Cc1c(NC2CCC(N)CC2)nc2ccnn2c1Nc1ccc(F)c(Cl)c1 (stereo not drawn)

Ki [11]: 1 µM (active)
Ki [18]: 5.01 µM (active)
Structure (SMILES): COc1ccccc1Nc1nc(Nc2cnn(C)c2)ncc1Br

Structure (SMILES): c1ccc2c(c1)OCC(c1nnc3c4c5c(sc4ncn13)CCCC5)O2 (stereo not drawn)
IC50 [19]: > 99 µM (inactive)
IC50 [20]: > 99 µM (inactive)

Ki [21]: 2.51 µM (active)
Ki [22]: 2.51 µM (active)
Structure (SMILES): O=C(NCc1ccc(Br)cc1)c1cnn2c(-c3ccccc3)ccnc12

IC50 [23]: > 66.6 µM (inactive)
IC50 (Beta-galactosidase): > 66.6 µM (inactive)
AC50 [24]: 6.15 µM (active)
AC50 (HSP90): 8.36 µM (active)
Structure (SMILES): Oc1ccc(Cl)c2cccnc12 [CLOXYQUIN]

— ChEMBL document CHEMBL1201862, “PubChem BioAssay data set” (2004)
